In one assay the target is Rhesus PDE2A3 (Macaca mulatta, UniProt B3VTJ2). Kind of assay: PDE2 fluorescence polarization (IMAP FP) assay, rhesus PDE2A3. The format is biochemical, rhesus macaque. Conditions: Lab B, read-out: Rhesus PDE2 Ki (nM) Lab B. (In general: In fluorescence polarisation assays a small probe gives low polarisation when free and higher when bound to something large.)
In a further assay the target is human PDE2A1 (Homo sapiens (Human), UniProt O00408). Kind of assay: PDE selectivity IMAP FP assay, human PDE2A1. The assay is classed as biochemical. Conditions: Human PDE2; Lab B; read-out: Human PDE2 Ki (nM) Lab B. Put shortly:
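Compound titrations run against PDE2 in Tris HCl pH 7.2 buffer with MgCl2 and DTT for 60 min at room temperature, using 50 nM FAM-cAMP plus 1000 nM cGMP and enzyme giving 20% conversion.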

human PDE2A1, sequence (O00408 other isoform, or with tags, fused parts or gaps): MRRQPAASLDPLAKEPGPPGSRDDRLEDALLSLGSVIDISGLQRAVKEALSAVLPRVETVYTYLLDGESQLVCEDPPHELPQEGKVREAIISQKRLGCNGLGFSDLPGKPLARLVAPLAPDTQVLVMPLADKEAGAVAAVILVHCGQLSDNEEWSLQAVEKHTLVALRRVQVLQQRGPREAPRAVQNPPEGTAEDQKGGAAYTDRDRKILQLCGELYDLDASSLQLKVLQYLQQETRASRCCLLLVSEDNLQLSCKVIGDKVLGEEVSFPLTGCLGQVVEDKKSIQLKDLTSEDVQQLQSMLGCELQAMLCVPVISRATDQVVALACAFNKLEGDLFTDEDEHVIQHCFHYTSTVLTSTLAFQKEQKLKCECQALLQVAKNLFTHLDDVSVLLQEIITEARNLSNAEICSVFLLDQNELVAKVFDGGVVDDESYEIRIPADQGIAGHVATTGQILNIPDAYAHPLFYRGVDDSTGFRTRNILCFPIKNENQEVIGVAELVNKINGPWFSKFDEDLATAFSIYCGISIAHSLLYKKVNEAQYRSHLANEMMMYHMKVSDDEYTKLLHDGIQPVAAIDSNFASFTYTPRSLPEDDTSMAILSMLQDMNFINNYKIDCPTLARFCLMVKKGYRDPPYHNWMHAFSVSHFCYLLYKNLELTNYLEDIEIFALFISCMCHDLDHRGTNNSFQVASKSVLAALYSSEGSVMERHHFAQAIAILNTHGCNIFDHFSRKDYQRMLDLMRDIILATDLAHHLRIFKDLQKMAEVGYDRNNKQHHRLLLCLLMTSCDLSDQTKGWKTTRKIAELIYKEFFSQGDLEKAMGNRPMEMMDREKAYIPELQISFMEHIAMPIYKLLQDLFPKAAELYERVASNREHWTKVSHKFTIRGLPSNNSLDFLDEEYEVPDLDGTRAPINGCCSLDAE
Rhesus PDE2A3, sequence (B3VTJ2 1-941): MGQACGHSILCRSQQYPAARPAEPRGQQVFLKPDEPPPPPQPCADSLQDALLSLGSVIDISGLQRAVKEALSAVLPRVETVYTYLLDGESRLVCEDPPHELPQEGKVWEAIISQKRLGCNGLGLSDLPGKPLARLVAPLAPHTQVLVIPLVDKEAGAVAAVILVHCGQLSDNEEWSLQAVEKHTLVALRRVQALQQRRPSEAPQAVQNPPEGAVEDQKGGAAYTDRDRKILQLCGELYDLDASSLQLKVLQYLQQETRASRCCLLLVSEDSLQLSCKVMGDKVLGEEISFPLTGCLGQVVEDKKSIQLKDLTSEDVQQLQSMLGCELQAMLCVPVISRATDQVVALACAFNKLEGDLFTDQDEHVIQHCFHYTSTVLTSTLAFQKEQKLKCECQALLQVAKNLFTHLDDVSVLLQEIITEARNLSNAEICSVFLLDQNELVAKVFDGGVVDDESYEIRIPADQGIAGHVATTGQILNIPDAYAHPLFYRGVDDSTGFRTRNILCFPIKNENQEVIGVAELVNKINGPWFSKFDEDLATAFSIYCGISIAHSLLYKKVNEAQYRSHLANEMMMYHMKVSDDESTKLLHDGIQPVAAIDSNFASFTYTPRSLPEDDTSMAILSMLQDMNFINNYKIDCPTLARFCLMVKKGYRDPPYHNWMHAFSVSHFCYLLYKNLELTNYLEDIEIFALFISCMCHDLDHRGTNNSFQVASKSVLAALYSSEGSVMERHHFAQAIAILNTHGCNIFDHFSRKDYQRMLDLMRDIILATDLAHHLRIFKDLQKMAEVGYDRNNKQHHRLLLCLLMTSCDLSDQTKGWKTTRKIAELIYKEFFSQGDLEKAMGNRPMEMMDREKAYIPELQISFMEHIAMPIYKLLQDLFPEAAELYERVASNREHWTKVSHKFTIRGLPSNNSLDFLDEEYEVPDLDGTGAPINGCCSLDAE

The term Ki denotes a dissociation constant, usually derived from enzyme kinetics or from competition with a known ligand. For the compound `CC(c1ccc(C(F)(F)F)cc1F)n1nc(CO)c2c(=O)[nH]c(N(C)C)nc21` (single isomer, unassigned) [Example 81, (S)- or (R)-6-(Dimethylamino)-1-(1-(2-fluoro-4-(trifluorornethyl)phenyl)ethyl)-3-(hyrdroxymethyl)-1H-pyrazolo[3,4-d]pyrimidin-4(5H)-one], the figures for the inhibition constant Ki on Rhesus PDE2A3 and on human PDE2A1 were 0.25 nM and 0.29 nM, respectively.

Consider `CC(c1ccc(C(F)F)cc1)n1nc(CO)c2c(=O)[nH]c(N(C)C)nc21` (single isomer, unassigned) [Example 83, (S)- or (R)-1-(1-(4-(Difluoromethyl)phenyl)ethyl)-6-(dimethylamino)-3-(hydroxymethyl)-1H-pyrazolo[3,4-d]pyrimidin-4(5H)-one], for which the values for the Ki on Rhesus PDE2A3 and at human PDE2A1 were 1.1 nM and 0.86 nM, respectively.

Consider `CC(c1ccc(OC(F)(F)F)c(F)c1)n1nc(CO)c2c(=O)[nH]c(N(C)C)nc21` (single isomer, unassigned) [Example 84, (R)- or (S)-6-(Dimethylamino)-1-(1-(3-fluoro-4-(trifluoromethoxy)phenyl)ethyl)-3-(hydroxymethyl)-1H-pyrazolo[3,4-d]pyrimidin-4(5H)-one], for which the values for the inhibition constant Ki at Rhesus PDE2A3 and on human PDE2A1 were 1 nM and 0.68 nM, respectively.

In the case of `CC(c1ccc(OC(F)(F)F)c(F)c1)n1nc(CO)c2c(=O)[nH]c(N(C)C)nc21` (single isomer, unassigned) [Example 85, (S)- or (R)-6-(Dimethylamino)-1-(1-(3-fluoro-4-(trifluoromethoxy)phenyl)ethyl)-3-(hydroxymethyl)-1H-pyrazolo[3,4-d]pyrimidin-4(5H)-one], the inhibition constant (Ki) came out at 0.3 nM on Rhesus PDE2A3 and 0.24 nM on human PDE2A1.

Turning to `CN(C)c1nc2c(c(CO)nn2C(c2ccc(CC(F)(F)F)cc2)C2CC2)c(=O)[nH]1` (single isomer, unassigned) [Example 86, (R)- or (S)-1-(Cyclopropyl(4-(2,2,2-trifluoroethyl)phenyl)methyl)-6-(dimethylamino)-3-(hydroxymethyl)-1H-pyrazolo[3,4-d]pyrimidin-4(5H)-one], the inhibitory constant (Ki) at Rhesus PDE2A3 was 0.91 nM; on human PDE2A1, 0.57 nM.

As for `CN(C)c1nc2c(c(CO)nn2C(c2ccc(CC(F)(F)F)cc2)C2CC2)c(=O)[nH]1` (single isomer, unassigned) [Example 87, (S)- or (R)-1-(Cyclopropyl(4-(2,2,2-trifluoroethyl)phenyl)methyl)-6-(dimethylainino)-3-(hydroxymethyl)-1H-pyrazolo[3,4-d]pyrimidin-4(5H)-one], the inhibition constant Ki at Rhesus PDE2A3 amounted to 0.4 nM; on human PDE2A1, 0.38 nM.

In the case of `CC(C)C(c1ccc(C(F)F)cc1)n1nc(CO)c2c(=O)[nH]c(N(C)C)nc21` (single isomer, unassigned) [Example 90, (R)- or (S)-1-(1-(4-(Difluoromethyl)phenyl)-2-methylpropyl)-6-(dimethylamino)-3-(hydroxymethyl)-1H-pyrazolo[3,4-d]pyrimidin-4(5H)-one], the results for the Ki at Rhesus PDE2A3 and on human PDE2A1 were 2.3 nM and 1.1 nM, respectively.

On to `CC(C)C(c1ccc(C(F)F)cc1)n1nc(CO)c2c(=O)[nH]c(N(C)C)nc21` (single isomer, unassigned) [Example 91, (S)- or (R)-1-(1-(4-(Difluoromethyl)phenyl)-2-methylpropyl)-6-(dimethylamino)-3-(hydroxymethyl)-1H-pyrazolo[3,4-d]pyrimidin-4(5H)-one], for which the inhibitory constant (Ki) at Rhesus PDE2A3 and at human PDE2A1 was 0.18 nM each time.

Turning to `CCC(c1ccc(C(F)F)cc1)n1nc(CO)c2c(=O)[nH]c(N(C)C)nc21` (single isomer, unassigned) [Example 93, (S)- or (R)-1-(1-(4-(Difluoromethyl)phenyl)propyl)-6-(dimethylamino)-3-(hydroxymethyl)-1H-pyrazolo[3,4-d]pyrimidin-4(5H)-one], the Ki on Rhesus PDE2A3 is 0.55 nM; at human PDE2A1 it was 0.42 nM.

Turning to `CN(C)c1nc2c(c(CO)nn2C(c2ccc(CC(F)(F)F)c(F)c2)C2CC2)c(=O)[nH]1` (single isomer, unassigned) [Example 94, (R)- or (S)-1-(Cyclopropyl(3-fluoro-4-(2,2,2-trifluoroethyl)phenyl)methyl)-6-(dimethylamino)-3-(hydroxymethyl)-1H-pyrazolo[3,4-d]pyrimidin-4(5H)-one], the inhibitory constant (Ki) on Rhesus PDE2A3 came out at 0.15 nM; at human PDE2A1, 0.14 nM.

As to `CN(C)c1nc2c(c(CO)nn2C(c2ccc(CC(F)(F)F)c(F)c2)C2CC2)c(=O)[nH]1` (single isomer, unassigned) [Example 95, (S)- or (R)-1-(Cyclopropyl(3-fluoro-4-(2,2,2-trifluoroethyl)phenyl)methyl)-6-(dimethylamino)-3-(hydroxymethyl)-1H-pyrazolo[3,4-d]pyrimidin-4(5H)-one], the Ki amounted to 0.44 nM on Rhesus PDE2A3 and 0.39 nM at human PDE2A1.

Regarding `CCC(c1ccc(CC(F)(F)F)c(F)c1)n1nc(CO)c2c(=O)[nH]c(N(C)C)nc21` (single isomer, unassigned) [Example 97, (S)- or (R)-6-(Dimethylamino)-1-(1-(3-fluoro-4-(2,2,2-trifluoroethyl)phenyl)propyl)-3-(hydroxymethyl)-1H-pyrazolo[3,4-d]pyrimidin-4(5H)-one], the inhibition constant Ki on Rhesus PDE2A3 is 0.11 nM; on human PDE2A1 it was 0.09 nM.

For the compound `CC(c1ccc(CC(F)(F)F)c(F)c1)n1nc(CO)c2c(=O)[nH]c(N(C)C)nc21` (single isomer, unassigned) [Example 100, (R)- or (S)-6-(Dimethylamino)-1-(1-(3-fluoro-4-(2,2,2-trifluoroethyl)phenyl)ethyl)-3-(hydroxymethyl)-1H-pyrazolo[3,4-d]pyrimidin-4(5H)-one], the inhibition constant (Ki) came to 1.1 nM at Rhesus PDE2A3 and 0.88 nM on human PDE2A1.

Consider `CC(c1ccc(CC(F)(F)F)c(F)c1)n1nc(CO)c2c(=O)[nH]c(N(C)C)nc21` (single isomer, unassigned) [Example 101, (S)- or (R)-6-(Dimethylamino)-1-(1-(3-fluoro-4-(2,2,2-trifluoroethyl)phenyl)ethyl)-3-(hydroxymethyl)-1H-pyrazolo[3,4-d]pyrimidin-4(5H)-one], for which the Ki on Rhesus PDE2A3 came out at 0.35 nM; on human PDE2A1 it was 0.29 nM.

On to `CC(c1ccc(C(C)(F)F)cc1)n1nc(CO)c2c(=O)[nH]c(N(C)C)nc21` (single isomer, unassigned) [Example 103, (S)- or (R)-1-(1-(4-(1,1-Difluoroethyl)phenyl)ethyl)-6-(dimethylamino)-3-(hydroxymethyl)-1H-pyrazolo[3,4-d]pyrimidin-4(5H)-one], for which the Ki at Rhesus PDE2A3 was found to be 0.3 nM; on human PDE2A1, 0.28 nM.

`CC(c1ccc(C(F)F)c(F)c1)n1nc(CO)c2c(=O)[nH]c(N(C)C)nc21` (single isomer, unassigned) [Example 105, (S)- or (R)-1-(1-(4-(Difluoromethyl)-3-fluorophenyl)ethyl)-6-(dimethylamino)-3-(hydroxymethyl)-1H-pyrazolo[3,4-d]pyrimidin-4(5H)-one]: the Ki on Rhesus PDE2A3 amounted to 1.6 nM; at human PDE2A1 it was 1.1 nM.

Regarding `CC(c1ccc(C(C)(F)F)c(F)c1)n1nc(CO)c2c(=O)[nH]c(N(C)C)nc21` (single isomer, unassigned) [Example 106, (R)- or (S)-1-(1-(4-(1,1-Difluoroethyl)-3-fluorophenyl)ethyl)-6-(dimethylamino)-3-(hydroxymethyl)-1H-pyrazolo[3,4-d]pyrimidin-4(5H)-one], the inhibition constant Ki on Rhesus PDE2A3 came to 6.2 nM; at human PDE2A1 it was 3.6 nM.

Take `CC(c1ccc(C(C)(F)F)c(F)c1)n1nc(CO)c2c(=O)[nH]c(N(C)C)nc21` (single isomer, unassigned) [Example 107, (S)- or (R)-1-(1-(4-(1,1-Difluoroethyl)-3-fluorophenyl)ethyl)-6-(dimethylamino)-3-(hydroxymethyl)-1H-pyrazolo[3,4-d]pyrimidin-4(5H)-one]: the inhibition constant Ki at Rhesus PDE2A3 and on human PDE2A1 was 0.12 nM throughout.

Turning to `CC(c1ccc(C(C)(F)F)cc1F)n1nc(CO)c2c(=O)[nH]c(N(C)C)nc21` (single isomer, unassigned) [Example 108, (R)- or (S)-1-(1-(4-(1,1-DiHuoroethyl)-2-fluoroplienyl)ethyl)-6-(dimethylamino)-3-(hydroxymethyl)-1H-pyrazolo[3,4-d]pyrimidin-4(5H)-one], the inhibition constant (Ki) is 0.18 nM at Rhesus PDE2A3 and 0.23 nM at human PDE2A1.

On to `CCC(c1ccc(C(C)(F)F)cc1F)n1nc(CO)c2c(=O)[nH]c(N(C)C)nc21` (single isomer, unassigned) [Example 111, (S)- or (R)-1-(1-(4-(1,1-Difluoroethyl)-2-fluorophenyl)propyl)-6-(dimethylamino)-3-(hydroxymethyl)-1H-pyrazolo[3,4-d]pyrimidin-4(5H)-one], for which the inhibition constant (Ki) was 0.14 nM on Rhesus PDE2A3 and 0.12 nM on human PDE2A1.

On to `CCC(c1ccc(C(C)(F)F)c(F)c1)n1nc(CO)c2c(=O)[nH]c(N(C)C)nc21` (single isomer, unassigned) [Example 112, (R)- or (S)-1-(1-(4-(1,1-Difluoroethyl)-3-fluorophenyl)propyl)-6-(dimethylamino)-3-(hydroxymethyl)-1H-pyrazolo[3,4-d]pyrimidin-4(5H)-one], for which the figures for the Ki on Rhesus PDE2A3 and on human PDE2A1 were 1.1 nM and 0.84 nM, respectively.

As for `CCC(c1ccc(C(C)(F)F)c(F)c1)n1nc(CO)c2c(=O)[nH]c(N(C)C)nc21` (single isomer, unassigned) [Example 113], the Ki came to 0.055 nM on Rhesus PDE2A3 and 0.057 nM on human PDE2A1.

For `CC(C)C(c1ccc(C(F)F)c(F)c1)n1nc(CO)c2c(=O)[nH]c(N(C)C)nc21` (single isomer, unassigned) [Example 114], the figures for the Ki on Rhesus PDE2A3 and at human PDE2A1 were 0.71 nM and 0.79 nM, respectively.

For `CC(C)C(c1ccc(C(C)(F)F)c(F)c1)n1nc(CO)c2c(=O)[nH]c(N(C)C)nc21` (single isomer, unassigned) [Example 116, (R)- or (S)-1-(1-(4-(1,1-Difluoroethyl)-3-fluorophenyl)-2-methylpropyl)-6-(dimethylamino)-3-(hydroxymethyl)-1H-pyrazolo[3,4-d]pyrimidin-4(5H)-one], the Ki was determined as 0.16 nM on Rhesus PDE2A3 and 0.13 nM on human PDE2A1.

The values above are taken from US10174037B2, “Dihydropyrazolopyrimidinone compounds as PDE2 inhibitors” (Merck Sharp & Dohme Corp., priority 2015, dated 2019).
